Laboratory results reported in patent US12077503B2, “Substituted cyclic amides and their use as herbicides” (FMC CORPORATION, priority 2015, dated 2024).

How the values were obtained:
Assay type in all cases: in vivo
[1] = system: barnyardgrass (Echinochloa crus-galli); experiment: Test A preemergence; settings: Echinochloa crus-galli, pre-emergence, 240 h, Preemergence; for pest or weed control at 31 g/ha: 31 g ai/ha, 0 to 100 scale where 0 is no effect and 100 is complete control, read-out: Barnyardgrass plant response rating; for pest or weed control at 125 g/ha: 125 g ai/ha, 0 to 100 scale (0 no effect, 100 complete control), read-out: Plant response rating, Barnyardgrass
Outline: (§1)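 Seeded soil received test chemicals as a preemergence directed spray, and seedlings at one to two leaves, 2–10 cm tall, received them postemergence, in a non-phytotoxic, surfactant-containing solvent mixture. Pots were held in a greenhouse for approximately 10 d, then rated for injury from 0, no effect, to 100, complete control.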

[2] = system: ryegrass, Italian (Italian ryegrass, Lolium multiflorum); experiment: Test A preemergence; settings: Lolium multiflorum, pre-emergence, 240 h, Preemergence; for pest or weed control at 31 g/ha: 31 g ai/ha, 0 to 100 scale where 0 is no effect and 100 is complete control, read-out: Ryegrass, Italian plant response rating; for pest or weed control at 125 g/ha: 125 g ai/ha, 0 to 100 scale (0 no effect, 100 complete control), read-out: Plant response rating, Ryegrass, Italian
Outline: as §1

[3] = system: ragweed (common ragweed, Ambrosia elatior); experiment: Test A preemergence; settings: Ambrosia artemisiifolia, pre-emergence, 240 h, Preemergence; for pest or weed control at 31 g/ha: 31 g ai/ha, 0 to 100 scale where 0 is no effect and 100 is complete control, read-out: Ragweed plant response rating; for pest or weed control at 125 g/ha: 125 g ai/ha, 0 to 100 scale (0 no effect, 100 complete control), read-out: Plant response rating, Ragweed
Outline: as §1

Kochia (Kochia scoparia) [4] = experiment: Test A preemergence; settings: Bassia scoparia, pre-emergence, 240 h, Preemergence; for pest or weed control at 31 g/ha: 31 g ai/ha, 0 to 100 scale where 0 is no effect and 100 is complete control, read-out: Kochia plant response rating; for pest or weed control at 125 g/ha: 125 g ai/ha, 0 to 100 scale (0 no effect, 100 complete control), read-out: Plant response rating, Kochia
Outline: as §1

[5] = system: pigweed (Amaranthus retroflexus); experiment: Test A preemergence; settings: Amaranthus retroflexus, pre-emergence, 240 h, Preemergence; for pest or weed control at 31 g/ha: 31 g ai/ha, 0 to 100 scale where 0 is no effect and 100 is complete control, read-out: Pigweed plant response rating; for pest or weed control at 125 g/ha: 125 g ai/ha, 0 to 100 scale (0 no effect, 100 complete control), read-out: Plant response rating, Pigweed
[6] = system: blackgrass (Alopecurus myosuroides); experiment: Test A postemergence; settings: Alopecurus myosuroides, post-emergence, 240 h, Postemergence, read-out: Blackgrass plant response rating (0 to 100 scale); for pest or weed control at 125 g/ha: 125 g ai/ha, visual rating about 10 d after treatment; for pest or weed control at 31 g/ha: 31 g ai/ha, 0 is no effect, 100 is complete control
Outline: as §1

[7] = system: barnyardgrass (Echinochloa crus-galli); experiment: Test A postemergence; settings: Echinochloa crus-galli, post-emergence, 240 h, Postemergence; for pest or weed control at 125 g/ha: 125 g ai/ha, visual rating about 10 d after treatment, read-out: Barnyardgrass plant response rating (0 to 100 scale, 0 no effect, 100 complete control); for pest or weed control at 31 g/ha: 31 g ai/ha, 0 is no effect, 100 is complete control, read-out: Barnyardgrass plant response rating (0 to 100 scale)
Outline: as §1

[8] = system: ryegrass, Italian (Italian ryegrass, Lolium multiflorum); experiment: Test A postemergence; settings: Lolium multiflorum, post-emergence, 240 h, Postemergence, read-out: Ryegrass, Italian plant response rating (0 to 100 scale); for pest or weed control at 125 g/ha: 125 g ai/ha, visual rating about 10 d after treatment; for pest or weed control at 31 g/ha: 31 g ai/ha, 0 is no effect, 100 is complete control
Outline: as §1

corn (Zea mays) = experiment: Test A postemergence; settings: Zea mays, post-emergence, 240 h, Postemergence, read-out: Corn plant response rating (0 to 100 scale); for plant injury at 125 g/ha: 125 g ai/ha, visual rating about 10 d after treatment; for plant injury at 31 g/ha: 31 g ai/ha, 0 is no effect, 100 is complete control
Outline: as §1

[9] = system: ragweed (common ragweed, Ambrosia elatior); experiment: Test A postemergence; settings: Ambrosia artemisiifolia, post-emergence, 240 h, Postemergence, read-out: Ragweed plant response rating (0 to 100 scale); for pest or weed control at 125 g/ha: 125 g ai/ha, visual rating about 10 d after treatment; for pest or weed control at 31 g/ha: 31 g ai/ha, 0 is no effect, 100 is complete control
Outline: as §1

[10] = system: Galium (catchweed bedstraw, Galium aparine); experiment: Test A postemergence; settings: Galium, post-emergence, 240 h, Postemergence, read-out: Galium plant response rating (0 to 100 scale); for pest or weed control at 125 g/ha: 125 g ai/ha, visual rating about 10 d after treatment; for pest or weed control at 31 g/ha: 31 g ai/ha, 0 is no effect, 100 is complete control
Outline: as §1

Kochia (Kochia scoparia) [11] = experiment: Test A postemergence; settings: Bassia scoparia, post-emergence, 240 h, Postemergence, read-out: Kochia plant response rating (0 to 100 scale); for pest or weed control at 125 g/ha: 125 g ai/ha, visual rating about 10 d after treatment; for pest or weed control at 31 g/ha: 31 g ai/ha, 0 is no effect, 100 is complete control
Outline: as §1

[12] = system: wheat (Triticum aestivum); experiment: Test A postemergence; settings: Triticum aestivum, post-emergence, 240 h, Postemergence, read-out: Wheat plant response rating (0 to 100 scale); for plant injury at 125 g/ha: 125 g ai/ha, visual rating about 10 d after treatment; for plant injury at 31 g/ha: 31 g ai/ha, 0 is no effect, 100 is complete control
Outline: as §1

[13] = system: giant foxtail (Setaria faberii); experiment: Test A postemergence; settings: Setaria faberi, post-emergence, 240 h, Postemergence, read-out: Foxtail, Giant plant response rating (0 to 100 scale); for pest or weed control at 125 g/ha: 125 g ai/ha, visual rating about 10 d after treatment; for pest or weed control at 31 g/ha: 31 g ai/ha, 0 is no effect, 100 is complete control
Outline: as §1

[14] = system: pigweed (Amaranthus retroflexus); experiment: Test A postemergence; settings: Amaranthus retroflexus, post-emergence, 240 h, Postemergence, read-out: Pigweed plant response rating (0 to 100 scale); for pest or weed control at 125 g/ha: 125 g ai/ha, visual rating about 10 d after treatment; for pest or weed control at 31 g/ha: 31 g ai/ha, 0 is no effect, 100 is complete control
Outline: as §1

Structure (SMILES): CN1C[C@H](c2csc3c2CCC(F)(F)C3)[C@@H](C(=O)Nc2cccc(F)c2F)C1=O (racemic) [Compound 1369]
- pest or weed control at 31 g/ha [1]: 0%
- pest or weed control at 125 g/ha [1]: 100%
- pest or weed control at 31 g/ha [2]: 0%
- pest or weed control at 125 g/ha [2]: 0%
- pest or weed control at 31 g/ha [3]: 50%
- pest or weed control at 125 g/ha [3]: 70%
- pest or weed control at 31 g/ha (Kochia (Kochia scoparia) [4]): 0%
- pest or weed control at 125 g/ha (Kochia (Kochia scoparia) [4]): 0%
- pest or weed control at 31 g/ha [5]: 0%
- pest or weed control at 125 g/ha [5]: 0%
- pest or weed control at 125 g/ha [6]: 20%
- pest or weed control at 31 g/ha [6]: 0%
- pest or weed control at 125 g/ha [7]: 60%
- pest or weed control at 31 g/ha [7]: 20%
- pest or weed control at 125 g/ha [8]: 30%
- pest or weed control at 31 g/ha [8]: 0%
- plant injury at 125 g/ha (corn (Zea mays)): 0%
- plant injury at 31 g/ha (corn (Zea mays)): 0%
- pest or weed control at 125 g/ha [9]: 20%
- pest or weed control at 31 g/ha [9]: 0%
- pest or weed control at 125 g/ha [10]: 30%
- pest or weed control at 31 g/ha [10]: 0%
- pest or weed control at 125 g/ha (Kochia (Kochia scoparia) [11]): 20%
- pest or weed control at 31 g/ha (Kochia (Kochia scoparia) [11]): 0%
- plant injury at 125 g/ha [12]: 0%
- plant injury at 31 g/ha [12]: 0%
- pest or weed control at 125 g/ha [13]: 50%
- pest or weed control at 31 g/ha [13]: 20%
- pest or weed control at 125 g/ha [14]: 20%
- pest or weed control at 31 g/ha [14]: 20%

Structure (SMILES): CN1C[C@H](c2csc3c2CCC(F)(F)C3)[C@@H](C(=O)Nc2ccc(F)c(F)c2F)C1=O (racemic) [Compound 1368]
- pest or weed control at 31 g/ha [1]: 0%
- pest or weed control at 125 g/ha [1]: 100%
- pest or weed control at 31 g/ha [2]: 0%
- pest or weed control at 125 g/ha [2]: 0%
- pest or weed control at 31 g/ha [3]: 0%
- pest or weed control at 125 g/ha [3]: 0%
- pest or weed control at 31 g/ha (Kochia (Kochia scoparia) [4]): 0%
- pest or weed control at 125 g/ha (Kochia (Kochia scoparia) [4]): 0%
- pest or weed control at 31 g/ha [5]: 0%
- pest or weed control at 125 g/ha [5]: 0%
- pest or weed control at 125 g/ha [6]: 30%
- pest or weed control at 31 g/ha [6]: 0%
- pest or weed control at 125 g/ha [7]: 50%
- pest or weed control at 31 g/ha [7]: 20%
- pest or weed control at 125 g/ha [8]: 40%
- pest or weed control at 31 g/ha [8]: 20%
- plant injury at 125 g/ha (corn (Zea mays)): 0%
- plant injury at 31 g/ha (corn (Zea mays)): 0%
- pest or weed control at 125 g/ha [9]: 0%
- pest or weed control at 31 g/ha [9]: 0%
- pest or weed control at 125 g/ha [10]: 30%
- pest or weed control at 31 g/ha [10]: 0%
- pest or weed control at 125 g/ha (Kochia (Kochia scoparia) [11]): 20%
- pest or weed control at 31 g/ha (Kochia (Kochia scoparia) [11]): 0%
- plant injury at 125 g/ha [12]: 0%
- plant injury at 31 g/ha [12]: 0%
- pest or weed control at 125 g/ha [13]: 40%
- pest or weed control at 31 g/ha [13]: 0%
- pest or weed control at 125 g/ha [14]: 0%
- pest or weed control at 31 g/ha [14]: 0%
